From patent US12077486B2, “Quaternary fatty amidoamine detergents” (NOURYON CHEMICALS INTERNATIONAL B.V., priority 2018, dated 2024)

Columns and labels:
[1] = stabilization of a dispersion of solids in a-polar medium; conditions: over a wide range of temperatures
[2] = solubility in an a-polar medium; type: physicochemical
Experimental: Throughout this document, unless indicated differently, the weight percentages of the compositions are based on the total weight of the composition, whereby the total weight of the composition is 100 wt %. The term water-soluble is used for materials that dissolve in an amount of at least 1 g per liter of demineralized water at 25° C. Where used, the term “consisting” also embraces “consisting substantially”, but may optionally be limited to its strict meaning of “consisting entirely”. An a-polar (nonpolar) medium is herein defined as a material having a dielectric coefficient of less than 7 at 20° C. Typically it is a liquid at the temperature of use. Suitably it is a medium with a dielectric coefficient at 20° C. of less than 6.5, 6, 5.5, 5, 4.5, 4, 3.5, or 3. The dielectric constant is measured in accordance with ASTM D150. The term “substantially free” is used fora moiety that is present in an amount of less than 2% by weight. Similarly, the term “essentially” is used to denote a composition that consists for more than 95% by weight of the indicated components.

With `CCCCC/C=C\CCC(CCCCCCCC(=O)NCCC[N+](C)(C)C)C(CCCCCCCC)CCCCCCCCC(=O)NCCC[N+](C)(C)C` (centres unmarked) [Preparation Example 1] the “stabilization of a dispersion of solids in the dissolution” value [1] was “perfectly stabilize” and the “dissolution in an a-polar medium” value [2] was “easily dissolve”.
